The compounds below were run against Photosystem II protein D1 (Spinacia oleracea, UniProt P69560) (assay: Inhibition of photosystem II mediated oxygen evolution in Spinacia oleracea (spinach) thylakoid measured for 25 sec). Conditions: read-out: I50.
Compound `C=CC/C=C\C/C=C\CCCCCCCC1=C(O)C(=O)C=C(OC)C1=O` [SORGOLEONE] has an IC50 of 65 nM.
`CCC/C=C\C/C=C\CCCCCCCC1=C(O)C(=O)C=C(OC)C1=O` [Sorgoleone-360] showed an IC50 of 104 nM.
`CCCCCC/C=C\CCCCCCCC1=C(O)C(=O)C=C(OC)C1=O` [Sorgoleone-362] gave an IC50 of 109 nM.
`CCCCCCCCCCCCCC1=C(O)C(=O)C=C(OC)C1=O` [Sorgoleone-364] gave an IC50 of 103 nM.

Source: ChEMBL document CHEMBL3044938, “Chromatographic separation and in vitro activity of sorgoleone congeners from the roots of sorghum bicolor” (J Agric Food Chem, 2003)
